Laboratory results reported in patent publication US20180344881A1, “FORMULATIONS FOR 2-HETEROARYL SUBSTITUTED BENZOFURANS” (Navidea Biopharmaceuticals, Inc., priority 2015, published 2018).

Columns and labels:
[1] = [^18F]NAV4694 solution for injection: stability (radiochemical purity over time); format: physicochemical
Description: [^18F]NAV4694 solution for injection was tested over a range of radioactivity concentration values to determine the capacity and potential expiry at given concentrations.

[2] = Filter type and excipient compatibility screen, retention of tracer on filter (FIG. 1); format: physicochemical; conditions: in PEG400 at levels of the excipient exceeding 10%; Sartorius Minisart 16596 HY 0.2 μm (FIG. 1)
Description: In examples of experiments, tests were performed on prospective formulations with different filter types to screen for compatibility of the filter material. Both cellulose and polyethersulfone membranes retained unacceptable quantities of the drug substance, with the lowest retention values obtained using polyvinylidene difluoride (PVDF) and polytetrafluoroethylene (PTFE) derived membranes.
In this case, a solution of [^18F]NAV4694 in PEG400 appears to have low retention at levels of the excipient exceeding 10%.
In the ensuing experiments, each of the excipients were formulated at multiple concentration levels (within acceptable ranges) then treated with small quantities of [^18F]NAV4694 and finally filtered through the preferred filter units. The percent retention of drug substance was then directly calculated through measurement of the actual quantity of radioactivity retained on the filter and compared to that remaining in the filtrate.

[3] = radioactivity concentration below about 75 mCi/mL
[4] = very high activity levels (>100 mCi/mL)

CNc1ccc(-c2cc3cc(O)ccc3o2)c([18F])n1 [[^18F]NAV4694, 2-[2-(^18F)fluoro-6-(methylamino)-3-pyridinyl)-5-benzofuranol]
initial radiochemical purity [1, 3]: high initial radiochemical purity | time over which high radiochemical purity is retained [1, 3]: retained over at least ten hours | decomposition [1, 4]: accelerated decomposition | initial radiochemical purity [1, 4]: lower initial radiochemical purity | retention of the tracer on the filter [2]: low retention
